Patent publication US10016498B2, “D-amino acid derivative-modified peptidoglycan and methods of use thereof” (priority 2012, dated 2018)

Columns and labels:
L. monocytogenes = format: cell-based
[1] = tested on: peptidoglycan of gram-positive bacteria; experiment: Incorporation of cyclooctyne D-amino acids into peptidoglycan, azido-PEG3-carboxyrhodamine labeling, flow cytometry and microscopy; format: cell-based, L. monocytogenes
Experimental: With all three amino acids in hand, their incorporation into the peptidoglycan of gram-positive bacteria was tested. The bacteria were grown for one-doubling time in the presence of 5 mM unnatural amino acids 30 to 32. The cells were then washed to remove excess amino acid and labeled with 20 μM of the commercially available azido-PEG3-carboxyrhodamine. This fluorophore efficiently labels terminal-alkyne-tagged peptidoglycan under copper-click conditions. The cells were then washed to remove excess probe, fixed, and studied by flow-cytometry and microscopy.
To further confirm that peptidoglycan was being labeled, a competition experiment was performed.

[2] = tested on: bacteria (E. coli, Bacillus subtilis, L. monocytogenes, Mycobacterium tuberculosis, Streptomyces coelicolor, Corynebacterium glutamicum); format: cell-based
L. monocytogenes PG [3] = experiment: alkDala labeling of newly synthesized PG: growth phase, vancomycin-BODIPY colocalization, antibiotic treatment; format: cell-based
L. monocytogenes PG [4] = experiment: HPLC and mass spectrometry of muropeptides from purified PG; format: cell-based
Description: Having ruled out other potential sites of D-alanine derivative labeling, direct evidence of its incorporation into PG was sought. PG comprises a repeating disaccharide to which is conjugated a short peptide, termed the stem peptide (FIG. 1A). Although newly synthesized PG stem peptide usually terminates in D-alanine-D-alanine, diverse bacterial phyla produce and incorporate D-amino acids other than D-alanine into those positions. (17, 18) The process is flexible; various natural and unnatural D-amino acids appear to incorporate, albeit at varying efficiencies. […] After digesting the PG with muramidase, HPLC was used to detect muropeptides by absorbance at either 204 nm (to visualize all species) or 500 nm (to identify fluorophore-containing fragments). […] PG samples from E. coli incubated in azDala alone were analyzed; and it was determined that the fraction of D-alanine that had been replaced with the synthetic analog was roughly 50% of the tetrapeptide pool and 15% of the total muropeptide population.
FIGS. 2A-D. AlkDala incorporates into L. monocytogenes PG. […] Absorbance at 204 nm, blue, and at 500 nm, red, are shown. […] The most abundant peaks detected at 500 nm were collected and subjected to analysis by mass spectrometry, (D), to identify the chemical structure of the alkDala-containing muropeptides conjugated to azido-fluor 488, (B).

[5] = tested on: L. monocytogenes in J774 macrophages; experiment: alkDala labeling of intracellular bacteria during J774 macrophage infection; format: cell-based; conditions: 50 mM alkDala, azido-fluor 488
E. coli PG = format: cell-based, Escherchia coli

Compound: C#CC[C@@H](N)C(=O)O [alkDala, R-propargylglycine]
- labeling of dal- dat- D-alanine auxotroph compared to wildtype (L. monocytogenes): labeled more strongly
- labeling of listeria lacking PBP5 versus wild type [1]: enhanced labeling over wild type
- cell surface labeling by microscopy [2]: Clear cell surface labeling of all species tested
- colocalization of signal with vancomycin-BODIPY, a marker of nascent PG (L. monocytogenes PG [3]; one generation, azido-fluor 545): colocalized
- position of insertion in the PG stem peptide (L. monocytogenes PG [4]; L. monocytogenes): fifth position
- change of PG structure compared to D-alanine incubation (L. monocytogenes PG [4]; long periods of incubation): did not appreciably change PG structure
- site of labeling of intracellular L. monocytogenes ([5]; longer pulse (3.5 hrs)): at the septa and poles
- site of labeling of intracellular L. monocytogenes ([5]; short pulse (last 30 minutes)): labeled more at the septa
- position of insertion in the PG stem peptide (E. coli PG): fourth position

Compound: C[C@@H]1O[C@@H]1P(=O)(O)O [fosfomycin]
- effect of antibiotic treatment on alkDala labeling (L. monocytogenes PG [3]): completely abrogated

Compound: C[C@@H](O)[C@H]1C(=O)N2C(C(=O)O)=C(S[C@@H]3CN[C@H](C(=O)N(C)C)C3)[C@H](C)[C@H]12 [meropenem]
- effect of antibiotic treatment on alkDala labeling (L. monocytogenes PG [3]): much weaker effect

Compound: penicillin
- effect of antibiotic treatment on alkDala labeling (L. monocytogenes PG [3]): much weaker effect
